Experimental data reported in the supplement of paper PMC10307832.

Assays:
Test in all cases: relative viability (nuclei count vs DMSO), 5 days (fraction); higher = more cells survive
VX-11e + OSI-027 = compound: CC1=CN=C(N=C1C2=CNC(=C2)C(=O)N[C@H](CO)C3=CC(=CC=C3)Cl)NC4=C(C=C(C=C4)F)Cl [VX-11e] + COc1cccc2cc(-c3nc([C@H]4CC[C@H](C(=O)O)CC4)n4ncnc(N)c34)[nH]c12 [OSI-027] (partner 0.5 µM)
Method in brief: (§1)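 Lung cancer cell lines, seeded in 1536-well plates, were treated the following day by pin tool with a single drug or with five library-drug doses (not always all listed) in √10 steps on top of a fixed anchor-drug dose. Cells were fixed and nuclei stained in one step after 5 days, and nuclei were counted. Relative viability is the nuclei count for treated wells divided by that for vehicle wells, reported as medians of duplicate plates.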

VX-11e + Trametinib = compound: CC1=CN=C(N=C1C2=CNC(=C2)C(=O)N[C@H](CO)C3=CC(=CC=C3)Cl)NC4=C(C=C(C=C4)F)Cl [VX-11e] + CC(=O)Nc1cccc(-n2c(=O)n(C3CC3)c(=O)c3c(Nc4ccc(I)cc4F)n(C)c(=O)c(C)c32)c1 [Trametinib] (partner 0.02 µM)
Method in brief: as §1

VX-11e + Phenformin = compound: CC1=CN=C(N=C1C2=CNC(=C2)C(=O)N[C@H](CO)C3=CC(=CC=C3)Cl)NC4=C(C=C(C=C4)F)Cl [VX-11e] + N=C(N)NC(=N)NCCc1ccccc1 [Phenformin] (partner 250 µM)
Method in brief: as §1

VX-11e + Crizotinib = compound: CC1=CN=C(N=C1C2=CNC(=C2)C(=O)N[C@H](CO)C3=CC(=CC=C3)Cl)NC4=C(C=C(C=C4)F)Cl [VX-11e] + C[C@@H](Oc1cc(-c2cnn(C3CCNCC3)c2)cnc1N)c1c(Cl)ccc(F)c1Cl [Crizotinib] (partner 1 µM)
Method in brief: as §1

Cell Line | relative viability (VX-11e + OSI-027; first compound 0.04 µM) | relative viability (VX-11e + OSI-027; first compound 0.1265 µM) | relative viability (VX-11e + OSI-027; first compound 0.4 µM) | relative viability (VX-11e + OSI-027; first compound 1.265 µM) | relative viability (VX-11e + OSI-027; first compound 4 µM) | relative viability (VX-11e + Trametinib; first compound 0.04 µM) | relative viability (VX-11e + Trametinib; first compound 0.1265 µM) | relative viability (VX-11e + Trametinib; first compound 0.4 µM) | relative viability (VX-11e + Trametinib; first compound 1.265 µM) | relative viability (VX-11e + Trametinib; first compound 4 µM) | relative viability (VX-11e + Phenformin; first compound 0.04 µM) | relative viability (VX-11e + Phenformin; first compound 0.1265 µM) | relative viability (VX-11e + Phenformin; first compound 0.4 µM) | relative viability (VX-11e + Phenformin; first compound 1.265 µM) | relative viability (VX-11e + Phenformin; first compound 4 µM) | relative viability (VX-11e + Crizotinib; first compound 0.04 µM) | relative viability (VX-11e + Crizotinib; first compound 0.1265 µM) | relative viability (VX-11e + Crizotinib; first compound 0.4 µM) | relative viability (VX-11e + Crizotinib; first compound 1.265 µM) | relative viability (VX-11e + Crizotinib; first compound 4 µM)
NCI-H2023 | 0.332 | 0.349 | 0.139 | 0.183 | 0.114 | 0.601 | 0.495 | 0.391 | 0.292 | 0.171 | 0.393 | 0.404 | 0.291 | 0.322 | 0.191 | 0.633 | 0.606 | 0.519 | 0.427 | 0.338
NCI-H2085 | 0.625 | 0.695 | 0.517 | 0.322 | 0.251 | 0.495 | 0.516 | 0.524 | 0.482 | 0.497 | 0.6 | 0.707 | 0.641 | 0.449 | 0.425 | 0.88 | 0.817 | 0.746 | 0.714 | 0.619
NCI-H2087 | 0.357 | 0.448 |  | 0.319 | 0.145 | 0.255 | 0.182 |  | 0.181 | 0.182 | 0.459 | 0.462 |  | 0.393 | 0.181 | 1.03 | 0.809 | 0.944 | 1.07 | 0.502
NCI-H2126 | 0.533 | 0.816 | 0.315 | 0.448 | 0.541 | 0.543 | 0.539 | 0.575 | 0.523 | 0.473 | 0.48 | 0.512 |  | 0.567 | 0.467 |  | 1.03 | 0.987 | 1.02 | 0.901
NCI-H2170 | 0.589 | 0.624 | 0.155 | 0.649 | 0.453 | 0.805 | 0.913 | 0.89 | 0.854 | 0.819 | 0.41 | 0.431 | 0.21 | 0.445 | 0.39 | 1.18 | 1.04 | 1.23 | 1.03 | 1.1
NCI-H2228 | 0.617 | 0.54 |  | 0.216 | 0.123 | 0.518 | 0.466 | 0.0868 | 0.273 | 0.128 | 0.352 | 0.376 |  | 0.151 | 0.135 | 0.533 | 0.524 | 0.463 | 0.263 | 0.303
NCI-H2347 | 0.418 | 0.467 | 0.337 | 0.255 | 0.21 | 0.282 | 0.261 | 0.297 | 0.241 | 0.267 | 0.462 | 0.488 | 0.206 | 0.43 | 0.211 | 0.677 | 0.831 | 0.605 | 0.517 | 0.406
NCI-H2405 | 0.587 | 0.599 | 0.375 | 0.768 | 0.37 | 0.716 | 0.582 | 0.271 | 0.649 | 0.283 | 0.393 | 0.403 | 0.233 | 0.321 | 0.169 | 0.892 | 0.805 | 0.821 | 0.766 | 0.505
NCI-H3122 | 0.892 | 0.898 |  | 0.513 | 0.147 | 0.236 | 0.239 | 0.177 | 0.29 | 0.148 | 0.408 | 0.358 |  | 0.335 | 0.254 | 0.302 | 0.288 | 0.275 | 0.35 | 0.226
